{"source": "paper PMC1166555", "about": "“The therapeutic effect of the neuropeptide hormone somatostatin on Schistosoma mansoni caused liver fibrosis” (BMC Infectious Diseases, 2005)", "key": {"[1]": {"conditions": "studies in mice; cited from earlier work", "description": "The favorable metabolic profile of somatostatin is further supported by the fact that this compound has a very short half-life, and thus any undesirable effects may be rapidly reversed. In our experiment we have used 90 μg/24 hours in the Swiss mice that weighs about 40 g. In humans the therapeutic dose is 3.5 μg/kg/hour or 6 mg/24 h for a 75 kg person. A comparison of these values tells ..."}, "[2]": {"assay": "Toxicity of somatostatin administration in the study mice", "type": "in vivo", "conditions": "Swiss mice, 90 μg/24 hours, mice about 40 g", "description": "(§1) At such times animals of Groups 1 and 2 were treated with somatostatin (Somatostatine-ucb®), that was kindly gifted by UCB Pharma, Brussels. Somatostatin was administered in two regimens – a one-day treatment or a two-day treatment. One day treatment consisted of 3 doses of 30 μg somatostatin each, two day treatment was the double of this dose, that is 6 doses of 30 μg somatostatin to each animal. Somatostatin was administered intravenously via the caudal vein in the tail and intraperitoneally at regular intervals during the day. One week after the last somatostatin administration, mice were killed, the weight of the animal, liver and spleen were noted, plasma was extracted and stored as mentioned above, and the liver frozen immediately in liquid nitrogen and then at -80°C. The overall planning is depicted in Table 1. Untreated animals of the acute and chronic stage were also sacrificed at the respective times together with their treated counterparts. Research protocols involving rodents received ethical clearance by the University of Antwerp ethical committee.\nThe favorable metabolic profile of somatostatin is further supported by the fact that this compound has a very short half-life, and thus any undesirable effects may be rapidly reversed. In our experiment we have used 90 μg/24 hours in the Swiss mice that weighs about 40 g. […]"}, "[3]": {"conditions": "rats; cited from earlier work"}, "[4]": {"conditions": "cited from earlier work"}, "[5]": {"conditions": "dogs, animal studies; cited from earlier work", "description": "Somatostatin has a very short half-life of 1–3 minutes in man. […] To determine the pharmacokinetic profile in outbred Swiss mice, 25 μg of somatostatin was administered per mouse via th ..."}, "[6]": {"assay": "Pharmacokinetic profile of somatostatin in outbred Swiss mice (plasma, RIA)", "type": "in vivo", "conditions": "male Swiss mice; for level at 10 min: Swiss (outbred), 25 ug per mouse, 10 minutes post injection, plasma", "description": "Separate groups of male Swiss mice were injected with 25 μg of somatostatin (somatostatin-ucb®, UCB Pharma, Brussels) intraperitoneally (in the abdomen) or intravenously (in the caudal vein in the tail). At defined moments after injection (10, 20, 40, 60 minutes) the animals were anaesthetized with Nembutal® (60 mg/kg). The thoracic cavity was cut open and blood collected from the right ventricle of the heart into chilled syringes containing EDTA (1 mg/ml) and Aprotinin (500 KIU/ml blood). The collected blood was centrifuged at 3000 rpm for 15 minutes at 0°C. The plasma was immediately frozen at -80°C freezer. Untreated naïve mice were also bled to ascertain background levels of somatostatin.\n(§2) The measurement of somatostatin concentrations in the Swiss mice plasma was carried out in the laboratory of Gastro-intestinal Hormones, at Gasthuisberg, K.U. Leuven, by means of a radio-immuno assay (RIA). The RIA was performed by incubating the samples with 1.7 pM 3-[^125I] iodotyrosyl^11 somatostatin-14 (specific activity 2000 Ci/mmol, Amersham Pharmacia Biotech, Buckinghamshire, UK) and a rabbit antibody against human SOM [1-14] in a 50 mM sodium phosphate buffer (pH 7.4, 0.25% EDTA, 0.5% charcoal-BSA, 500 U/ml Trasylol) for at least two days at 4°C. At the end of the incubation period the SOM bound to the antibody was separated from the free SOM by adding 500 μl dextran-charcoal followed by centrifugation for 15 min at 3000 rpm. Both fractions were counted in a gamma counter and the results were read from a standard curve (0–250 pg/ml) included in the RIA. The minimal detectable dose was 2.5 pg/ml.\nSomatostatin has a very short half-life of 1–3 minutes in man. […] To determine the pharmacokinetic profile in outbred Swiss mice, 25 μg of somatostatin was administered per mouse via the intraperitoneal or intravenous route. To assess the break down in these mice, plasma was collected at regular time intervals and circulating somatostatin levels assayed (Figure 2). At 10 minutes post injection somatostatin levels fall to 30233 pg/ml (IP) and 17413 pg/ml (IV)."}, "[7]": {"assay": "Liver, spleen and total body weight after somatostatin treatment", "type": "in vivo, Swiss mice", "description": "(§3) Groups of Swiss mice were infected with 100 S. mansoni cercariae each as mentioned above. Age matched mice were maintained as uninfected control animals. Groups of 10 mice composed Group 1 that were maintained till 10 weeks following infection, other 10 mice composed Group 2 that were maintained till 14 weeks of infection.\nas §1\nAll animals of Groups I and II were controlled for liver, spleen and total body weight, before sacrifice. The adult worms were recovered from the hepatic portal system and the liver by perfusion with citrate saline (0.85% sodium chloride; 1.5% sodium citrate). The livers were cut out and snap frozen in liquid nitrogen. For cyosectioning, liver fragments were embedded in Tissue-Tek OCT compound, 4 μm thick transverse sections were cut on a cryostat, mounted on slides coated with 0.1% ploy-L-lysine and stored at -20°C until use. To study parasite egg count, hepatocyte status, granuloma size and cellularity, series of sections were stained with Haematoxylin-eosin stain."}, "[8]": {"assay": "Circulating somatostatin levels in plasma at sacrifice, one week after therapy (RIA)", "type": "in vivo, Swiss mice", "conditions": "for level at 168 h: Swiss, mouse, plasma", "description": "as §3, §1, §2"}, "[9]": {"test_system": "S. mansoni", "conditions": "S. mansoni infected animals; cited from earlier work", "text": "Taken together we have elucidated the therapeutic capacity of somatostatin in reducing hepatic fibrosis. This report in fact confirms a previous report by Mansy, where using a somatostatin synthetic analog octreotide in S. mansoni infected animals, a reduction in hepatic fibrosis was noted. Since octreotide is limited in binding to somatostatin receptors, our results with natural somatostatin that binds to all 5 somatostatin receptors equally well assures us of the anti fibrotic capacities of this neuropeptide hormone, and points to its potential use in human conditions."}, "[10]": {"conditions": "acute (wk 10) infected mice, 1 day SOM treatment, one week post treatment, RIA, untreated 297.3 ± 37.24"}, "[11]": {"conditions": "acute (wk 10) infected mice, 2 day SOM treatment, one week post treatment, RIA, untreated 297.3 ± 37.24, p = 0.28"}, "[12]": {"conditions": "chronic (wk 14) infected mice, 1 day SOM treatment, one week post treatment, RIA, untreated 206.1 ± 13.30"}, "[13]": {"conditions": "chronic (wk 14) infected mice, 2 day SOM treatment, one week post treatment, RIA, untreated 206.1 ± 13.30, p = 0.06 (BL)"}, "[14]": {"conditions": "uninfected mice (17 wks.), 2 day SOM treatment, Group 1, RIA"}, "[15]": {"conditions": "uninfected mice (21 wks.), 2 day SOM treatment, Group 2, RIA"}}, "note": "Where two headings read alike, the source gives them in different places.", "data": [{"compound": "C[C@H](N)C(=O)NCC(=O)N[C@H]1CSSC[C@@H](C(=O)O)NC(=O)[C@H](CO)NC(=O)[C@H]([C@@H](C)O)NC(=O)[C@H](Cc2ccccc2)NC(=O)[C@H]([C@@H](C)O)NC(=O)[C@H](CCCCN)NC(=O)[C@H](Cc2c[nH]c3ccccc23)NC(=O)[C@H](Cc2ccccc2)NC(=O)[C@H](Cc2ccccc2)NC(=O)[C@H](CC(N)=O)NC(=O)[C@H](CCCCN)NC1=O", "note": "[somatostatin]", "values": [{"measurement": "LD50", "setting": "[1]", "result": "~10,000 times the acute therapeutic dose used in humans"}, {"measurement": "toxicity of somatostatin administration", "setting": "[2]", "result": "little toxicity"}, {"measurement": "time stable in whole blood", "setting": "[3]", "result": "up to 30 minutes"}, {"measurement": "time to reach plasma plateau", "setting": "[4]; healthy volunteers, intravenous infusion 250 μg/hour or 6 mg/24 hours", "result": "≤ 15", "unit": "min"}, {"measurement": "plasma plateau level", "setting": "[4]; healthy volunteers, intravenous infusion of therapeutic dose (250 μg/hour or 6 mg/24 hours)", "result": "300 to 3000", "unit": "pg/mL"}, {"measurement": "half-life", "setting": "[4]; in man", "result": "1 to 3", "unit": "min"}, {"measurement": "plasma profile / half-life compared with man", "setting": "[5]", "result": "same profile"}, {"measurement": "level at 10 min", "setting": "[6]; ip, 25 μg somatostatin per mouse intraperitoneally, read-out: circulating somatostatin level in plasma at 10 minutes post injection (IP)", "result": 30.2, "unit": "ng/mL"}, {"measurement": "level at 10 min", "setting": "[6]; iv, 25 μg somatostatin per mouse intravenously (caudal vein), read-out: circulating somatostatin level in plasma at 10 minutes post injection (IV)", "result": 17.4, "unit": "ng/mL"}, {"measurement": "circulating somatostatin level after one hour of injection", "setting": "[6]; 25 μg per mouse, IP or IV, one hour after injection", "result": "reaches baseline control levels"}, {"measurement": "change in liver weight", "setting": "[7]; acute and chronic infected animals after 2 days of somatostatin treatment vs untreated, p = 0.19, 0.90", "result": "no significant change"}, {"measurement": "change in spleen weight", "setting": "[7]; acute and chronic infected animals after 2 days somatostatin treatment vs untreated, p = 0.28, 0.73", "result": "no significant changes"}, {"measurement": "change in total body weight", "setting": "[7]; acute or chronic infected animals after somatostatin treatment", "result": "no significant changes"}, {"measurement": "level at 168 h", "setting": "[8]; [10]", "result": "0.24 ± 0.0213", "unit": "ng/mL"}, {"measurement": "level at 168 h", "setting": "[8]; [11]", "result": "0.234 ± 0.0236", "unit": "ng/mL"}, {"measurement": "level at 168 h", "setting": "[8]; [12]", "result": "0.226 ± 0.00541", "unit": "ng/mL"}, {"measurement": "level at 168 h", "setting": "[8]; [13]", "result": "0.248 ± 0.0131", "unit": "ng/mL"}, {"measurement": "level at 168 h", "setting": "[8]; [14]", "result": "0.137 ± 0.0117", "unit": "ng/mL"}, {"measurement": "level at 168 h", "setting": "[8]; [15]", "result": "0.152 ± 0.0415", "unit": "ng/mL"}, {"measurement": "level at 168 h", "setting": "[8]; uninfected mice, 1 day SOM treatment, Group 2, RIA", "result": "0.132 ± 0.0193", "unit": "ng/mL"}, {"measurement": "somatostatin level in plasma", "setting": "[8]; [10]", "result": 240.3, "unit": "pg/mL"}, {"measurement": "somatostatin level in plasma", "setting": "[8]; [11]", "result": 234.2, "unit": "pg/mL"}, {"measurement": "somatostatin level in plasma", "setting": "[8]; [12]", "result": 226.3, "unit": "pg/mL"}, {"measurement": "somatostatin level in plasma", "setting": "[8]; [13]", "result": 247.9, "unit": "pg/mL"}, {"measurement": "somatostatin level in plasma", "setting": "[8]; [14]", "result": 136.9, "unit": "pg/mL"}, {"measurement": "somatostatin level in plasma", "setting": "[8]; [15]", "result": 151.6, "unit": "pg/mL"}]}, {"compound": "octreotide", "values": [{"measurement": "hepatic fibrosis", "setting": "[9]", "result": "reduction"}]}]}
